Assay results published in patent US20170007633A1, “TREATMENT OF NEURODEGENERATIVE AND NEURODEVELOPMENTAL DISEASES BY INHIBITION OF THE a2-Na/K ATPase/a-ADDUCIN COMPLEX” (PRESIDENT AND FELLOWS OF HARVARD COLLEGE, priority 2014, published 2017).
“Also recorded” adds a separate entry of the source.

Legend:
SOD1^G93A mice = assay type: in vivo
Method: Transgenic mice overexpressing mutant G93A human superoxide dismutase 1 (Jackson Laboratory stock#002726). α2-Na/K ATPase null heterozygous (provided by Dr. Jerry B. Lingrel) and C57BL6 (Charles River) were used. All analysis was done with littermate mice derived from SOD1^G93A heterozygous mating with non-transgenic wild type and heterozygous α2-Na/K ATPase mice. All animal experiments were conducted under the institutional guidelines and were approved by the Institutional Animal Care and Use Committee (IACUC).
All morphological studies were performed as described in Chandra et al., Cell 123:383-396 (2005), which is incorporated by reference. Briefly, mice were deeply anesthetized and perfused with 4% paraformaldehyde in phosphate buffer. Spinal cords were post-fixed in the same fixative for 4 hours and processed for cryoprotective embedding. Immunohistochemistry analyses were carried out on 30 um cryosections from spinal cords with the indicated antibodies. […] For lentiviral mediated RNAi a minimum of 20 sections were quantified for surviving motor neurons in the injected and non-injected ventral horns from Nissl stained and immunofluorescence labeled sections.

[1] = test system: motor neurons co-cultured with SOD1^G93A astrocytes (Na/K ATPase); assay: co-culture of SOD1^G93A or control astrocytes with primary motor neurons, pharmacological inhibition of Na/K ATPase; conditions: for impairment of dendrite morphology in motor neurons induced by SOD1^G93A astrocytes / motor neuron cell death induced by SOD1^G93A astrocytes: final concentration of 1 μm; for motor neuron cell death induced by SOD1^G93A astrocytes: vehicle 56%, 7 days of co-culture
Method: Monolayer astrocytes culture from P2 SOD1^G93A and non-transgenic littermate mice were prepared as described in Di Giorgio et al., Nat. Neurosci. 10:608-614 (2007) and Nagai et al., Nat. Neurosci. 10:615-622 (2007), each of which is incorporated by reference. Astrocytes were plated in DMEM (GIBCO) supplemented with 10% FBS containing 100 U/ml penicillin and […] for two weeks or until confluent. Once confluent, cells were replated onto glass cover slips precoated with poly-D-lysine at a density of 40,000 cells/well in a 24-well dish. For RNAi experiment astrocyte cultures were transfected with RNAi or control U6 plasmid using Lipofectamine 2000 (Invitrogen) according to the guidelines of the manufacturer four days prior to co-culturing with motor neurons.
Spinal motor neuronal cultures from E12.5 wild-type rodents were performed as described in Gingras et al., J. Neurosci. Methods 163:11-118 (2007), which is hereby incorporated by reference. Cultures were plated astrocyte monolayers at 12,000 cells/well in Neurobasal-A medium (GIBCO) supplemented with 2% B-27 serum free supplement and 0.5 mM glutamine; DMEM/F12 (3:1, v/v ratio) with a cocktail of trophic factors composed of 0.5 ng/ml glia-derived neurotrophic factor, 1 ng/ml brain-derived neurotrophic factor and 10 ng/ml ciliary neurotrophic factor (trophic factor cocktail, R&D Systems).
Motor neurons were fixed after 7 days of co-cultures with astrocytes and immunostained with Islet1, MAP2 and Hoechst 33258 and subjected to cell survival. Approximately 150 cells were counted per cover slip. For pharmacological inhibition of Na/K ATPase in co-cultures. […] For motor neuron morphology images were taken using a NIKON eclipse TE2000 epifluorescence microscope using a digital CCD camera (DIAGNOSTIC instruments) and imported into the SPOT imaging software. Approximately 40 cells were analyzed per cover slip.

digoxin was tested, and the “motor neurons per ventral horn section” value (SOD1^G93A mice; 1 mg/kg intraperitoneal on a 48-hour cycle from 80 days, toward end stage (130±5 days), vehicle 4.66±0.40) was 7.20±0.21, the “motor neuron survival / degeneration in SOD1^G93A mice” value (SOD1^G93A mice; intraperitoneal digoxin compared to vehicle) was “protected motor neurons from degeneration; also recorded: significantly increases the number of motor neurons” and the “non-cell autonomous cell death and dendrite abnormalities induced by SOD1^G93A astrocytes (FIG. 5)” value [1] was “neuroprotective”. The “survival or morphology of motor neurons co-cultured with control (non-transgenic) astrocytes” value [1] was “did not alter survival or morphology of motor neurons; also recorded: did not alter motor neuron survival or morphology”, the “impairment of dendrite morphology in motor neurons induced by SOD1^G93A astrocytes” value [1] was “prevented impairment of dendrite morphology” and the “motor neuron cell death induced by SOD1^G93A astrocytes” value [1] was 19%.
For ouabain, the “non-cell autonomous cell death and dendrite abnormalities induced by SOD1^G93A astrocytes (FIG. 5)” value [1] was “neuroprotective”, the “survival or morphology of motor neurons co-cultured with control (non-transgenic) astrocytes” value [1] was “did not alter survival or morphology of motor neurons; also recorded: did not alter motor neuron survival or morphology” and the “impairment of dendrite morphology in motor neurons induced by SOD1^G93A astrocytes” value [1] was “prevented impairment of dendrite morphology”. For the same substance, the “motor neuron cell death induced by SOD1^G93A astrocytes” value [1] was 22%.
